Assay results from patent publication US20250380701A1, “HERBICIDAL COMBINATIONS AND A METHOD FOR CONTROLLING UNDESIRED VEGETATION” (UPL Mauritius Limited, priority 2022, published 2025).

System: weedy Glycine max
Test: Post-emergence herbicidal activity trial, efficacy on weedy Glycine max (Colby evaluation)
Format: in vivo
Method: The following products were used for testing the weed control efficacy of present herbicidal combinations.
Methodology: Trials were carried out to evaluate the efficacy of the combination of L-glufosinate ammonium (glufosinate-P-ammonium) and the additional herbicides on weedy Glycine max.
The soil used was sandy clay loam-sand: 68.0%; silt: 8.0%; clay: 24.0%.
All treatments were in 3 replications per treatment with a spray volume of about 150 L/ha.
The expected efficacy of a combination of L-glufosinate and the other herbicides was calculated using the well-established Colby method. Any difference between the observed and “expected” efficacy could be attributed to synergy between the two compounds.
In the Colby method, the expected (or predicted) response of a combination of herbicides is calculated by taking the product of the observed response for each individual component of the combination when applied alone, divided by 100, and subtracting this value from the sum of the observed response for each component when applied alone. An unexpected enhancement in efficacy of the combination is then determined by comparing the observed response of the combination to the expected (or predicted) response as calculated from the observed response of each individual component alone. If the observed response of the combination is greater than the expected (or predicted) response, or stated conversely, if the difference between the observed and expected response is greater than zero, then the combination is said to be synergistic or unexpectedly effective (Colby, S. R., Weeds, 1967(15), p. 20-22). The Colby method requires only a single dose of each herbicide applied alone and the mixture of both doses. The formula used to calculate the expected efficacy (EE) which was compared with the observed efficacy (OE) to determine the efficacy of the present disclosure is explained hereinbelow:
The expected efficacy for a combination of two active ingredients is as follows:
wherein, • A=Observed efficacy of active ingredient A at the same concentration as used in the mixture. • B=Observed efficacy of the active ingredient B at the same concentration as used in the mixture. • C=Observed efficacy of the active ingredient C at the same concentration as used in the mixture.
Experiments were conducted to assess the efficacy of the herbicidal combination comprising L-glufosinate ammonium and quizalofop-ethyl to control weedy Glycine max.
The percentage efficacy was calculated after 3, 28 and 35 days of applications (DAA). The target weed was Glycine max, and the concentration of the herbicide and the results are recorded in Table 2.
Experiments were conducted to assess the efficacy of the herbicidal combination comprising L-glufosinate ammonium and quizalofop-p-tefuryl to control the weedy Glycine max
The percentage efficacy was calculated after 3, 28 and 35 days of applications (DAA). The target weed was weedy Glycine max, and the concentration of the herbicide and the results are recorded in Table 3.

Which results are given for `C[C@@H](Oc1ccc(Oc2cnc3cc(Cl)ccc3n2)cc1)C(=O)OCC1CCCO1` (stereo partly drawn) [quizalofop-p-tefuryl, Quizalofop-p-tefuryl]?
Observed efficacy (%) of quizalofop-p-tefuryl (25 g a.i./ha) (Example 2 (Table 3), 3 DAA): 0%; Observed efficacy (%) of quizalofop-p-tefuryl (25 g a.i./ha) (Example 2 (Table 3), 28 DAA): 0%; Observed efficacy (%) of quizalofop-p-tefuryl (25 g a.i./ha) (Example 2 (Table 3), 35 DAA): 0%

Which “Observed efficacy (%) of quizalofop-ethyl (25 g a.i./ha)” value (Example 1 (Table 2), 3 DAA) does the source give for `CCOC(=O)C(C)Oc1ccc(Oc2cnc3cc(Cl)ccc3n2)cc1` (stereo not drawn) [quizalofop-ethyl, Quizalofop-ethyl] here?
Its value is 0%.

What about the “Observed efficacy (%) of quizalofop-ethyl (25 g a.i./ha)” value (Example 1 (Table 2), 28 DAA) of the same compound?
The value was 0%.

And the “Observed efficacy (%) of quizalofop-ethyl (25 g a.i./ha)” value (Example 1 (Table 2), 35 DAA)?
Its value is 0%.

Which results are given for `CP(=O)(O)CC[C@H](N)C(=O)O.N` [L-glufosinate ammonium]?
Observed efficacy (%) of L-glufosinate ammonium (150 g a.i./ha) (Example 1 (Table 2), 3 DAA): 50%; Observed efficacy (%) of L-glufosinate ammonium (150 g a.i./ha) (Example 1 (Table 2), 28 DAA): 40%; Observed efficacy (%) of L-glufosinate ammonium (150 g a.i./ha) (Example 1 (Table 2), 35 DAA): 40%; Observed efficacy (%) of L-glufosinate ammonium (150 g a.i./ha) (Example 2 (Table 3), 3 DAA): 50%; Observed efficacy (%) of L-glufosinate ammonium (150 g a.i./ha) (Example 2 (Table 3), 28 DAA): 60%; Observed efficacy (%) of L-glufosinate ammonium (150 g a.i./ha) (Example 2 (Table 3), 35 DAA): 55%
